Patent publication US8455437B2, “Method to predict and prevent oxygen-induced inflammatory tissue injury” (The United States of America, as Represented by the …, priority 2005, dated 2013)

Key:
A2AR gene deficient mice = assay: Selectivity control: lung inflammation in A2AR gene deficient mice; format: in vivo; details: dosing regimen used to treat WT mice (data not shown)
Excerpt: Thus, the exogenously added selective, synthetic A2AR agonist compensated for the loss of endogenously formed adenosine in oxygenated and inflamed lungs thereby decreasing lung injury and rescuing mice from death.

[1] = tested on: oxygenated mice with inflammatory lung injury; details: mouse, in vivo
endotoxin-treated mice = assay: Lung injury in endotoxin-treated mice; format: in vivo
[2] = tested on: mice with acute inflammatory lung injury; details: mouse, in vivo
[3] = i.t. injections, endotoxin-treated mice (data not shown)

| SMILES | lung inflammation in A2AR gene deficient mice (A2AR gene deficient mice) | number of deaths (oxygenation-induced death) [1] | pulmonary PMN sequestration (endotoxin-treated mice; histological examination) | lung tissue damage as assessed by lung injury score (endotoxin-treated mice; histological examination (not shown)) | accumulation of PMN (endotoxin-treated mice; [3]) | lung gas exchange (endotoxin-treated mice; [3]) | lung injury (endotoxin-treated mice; [3]) | lung vascular permeability (endotoxin-treated mice; [3]) | production of reactive oxygen metabolites (endotoxin-treated mice; [3]) | BAL fluid protein [2] | alveolo-capillary permeability (protein recovered by broncho-alveolar lavage) [2] | arterial pO2 after return to normal atmosphere [2] | death in short-term assays [2] | deaths of mice with inflamed lungs versus 21% ambient oxygen [2] | inflammatory lung injury (exudate protein in alveolar spaces, arterial blood oxygen tension) [2] | mice that died during 15 min equilibration period in normal atmosphere [2] |
| --- | --- | --- | --- | --- | --- | --- | --- | --- | --- | --- | --- | --- | --- | --- | --- | --- |
| CCNC(=O)[C@H]1O[C@@H](n2cnc3c(N)nc(NCCc4ccc(CCC(=O)O)cc4)nc32)[C@H](O)[C@@H]1O [CGS21680] | did not affect | dramatically reduced | inhibition | fourfold decrease | significantly decreased | improved | significantly inhibited | less pronounced increases | reduced |  |  |  |  |  |  |  |
| O=O [oxygen] |  |  |  |  |  |  |  |  |  | small accumulation | much more pronounced increase | decrease | did not result in death | Five times more | exacerbation | three out of seven |
